Data on 31 molecules can be found in patent US8716277B2, “Substituted imidazole compounds useful as positive allosteric modulators of mGlu5 receptor activity” (Boehringer Ingelheim International GmbH, priority 2011, dated 2014).

Structures are written as SMILES.

Usually EC50 stands for the midpoint of the concentration-response curve.

T1 sequence (P41594 21-1212): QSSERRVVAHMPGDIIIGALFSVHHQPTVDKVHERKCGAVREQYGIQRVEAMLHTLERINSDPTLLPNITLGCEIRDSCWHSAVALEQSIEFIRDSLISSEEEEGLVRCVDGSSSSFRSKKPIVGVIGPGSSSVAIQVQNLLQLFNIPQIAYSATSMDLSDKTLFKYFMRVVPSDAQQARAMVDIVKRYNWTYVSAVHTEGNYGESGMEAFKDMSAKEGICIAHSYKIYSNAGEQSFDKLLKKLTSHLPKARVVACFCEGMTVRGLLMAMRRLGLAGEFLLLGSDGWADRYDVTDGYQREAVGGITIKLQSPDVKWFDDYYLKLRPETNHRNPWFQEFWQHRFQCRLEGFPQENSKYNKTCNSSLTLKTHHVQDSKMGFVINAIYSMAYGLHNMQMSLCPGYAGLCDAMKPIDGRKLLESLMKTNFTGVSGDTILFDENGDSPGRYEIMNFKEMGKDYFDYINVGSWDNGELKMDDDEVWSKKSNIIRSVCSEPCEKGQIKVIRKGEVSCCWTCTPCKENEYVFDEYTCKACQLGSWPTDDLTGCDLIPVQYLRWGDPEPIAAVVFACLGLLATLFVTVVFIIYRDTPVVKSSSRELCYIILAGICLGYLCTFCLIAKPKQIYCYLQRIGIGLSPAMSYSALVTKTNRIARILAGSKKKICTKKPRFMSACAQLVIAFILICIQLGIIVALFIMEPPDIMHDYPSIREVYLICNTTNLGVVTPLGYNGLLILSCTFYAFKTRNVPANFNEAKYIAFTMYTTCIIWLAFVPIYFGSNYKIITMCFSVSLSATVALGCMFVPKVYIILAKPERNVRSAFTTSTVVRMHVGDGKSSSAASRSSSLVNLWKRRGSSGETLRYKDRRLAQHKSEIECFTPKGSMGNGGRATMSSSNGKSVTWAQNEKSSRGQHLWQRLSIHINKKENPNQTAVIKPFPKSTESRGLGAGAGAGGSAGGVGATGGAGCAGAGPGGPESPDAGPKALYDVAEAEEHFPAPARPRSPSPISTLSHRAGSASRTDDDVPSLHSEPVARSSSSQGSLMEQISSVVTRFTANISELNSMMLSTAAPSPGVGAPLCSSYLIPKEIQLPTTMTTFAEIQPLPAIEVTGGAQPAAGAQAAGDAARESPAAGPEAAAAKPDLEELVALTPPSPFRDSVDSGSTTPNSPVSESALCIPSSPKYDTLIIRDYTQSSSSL

This experiment concerns the target T1, human recombinant mGluR5 (Homo sapiens, UniProt P41594).
T1 construct: expressed in transfected cells; host or cells: HEK 293
Briefly: positive modulation of mGluR5, calcium based FLIPR assay. The settings on record: EC50 of the modulation; HEK 293 cell line expressing human recombinant mGluR5; glutamate at approximately 5% basal stimulation; peak height of Ca fluorescence signal. The method, then:
The positive modulation of mGluR5 is measured in a HEK 293 cell line expressing human recombinant mGluR5 and is detected with calcium based FLIPR assay. The cells are cultured with DMEM supplemented with 10% FCS, 2 μg/mL tetracycline, 100 μg/mL hygromycin and 500 μg/mL gneticin. The cell culture media is exchanged for tetracycline-free cell culture media 3-7 days before the assay. One day before the assay the cell culture medium is exchanged to DMEM without glutamine and phenol red and supplemented with 10% FCS, 100 μg/mL hygromycin and 500 μg/mL geneticin. On the assay day, the medium of the subconfluent cultures is removed and the cells are detached by addition of 2.5 ml EDTA(0.02%) per 175 cm2 culture flask for 1 minute. The cells are resuspend in Ringer solution (140 mM NaCl, 5 mM KCl, 2.5 mM CaCl2, 1.5 mM MgCl2, 5 mM Glucose, 10 mM Hepes; adjusted to pH 7.4 with NaOH), pooled and Ringer solution added to adjust the volume to 50 mL. The cell suspension is centrifuged for […] at 1500 U/min (425 g). The supernatant is removed and the cells washed a second time with 50 ml fresh Ringer solution and centrifuged again as before. The supernatant is again removed and the pellet resuspended in Ringer solution to 1,000,000 cells/ml (1×10^6 cells/mL). The cells are plated onto BD BioCoat Poly-D-Lysine 384 well plates (20,000 cells/well; 20 μl/well). The lid covered plates are then incubated until use at 37° C./10% CO2. For dye loading, 20 μl of Calcium-4 assay kit solution (prepared according to the manufacturer's description in Ringer solution) are added to the cells and the plates are incubated for […] 37° C. and then […] at room temperature.
Controls, Compound Dilution and Assay Execution:
Each assay plate contained wells with “high” and “low” controls:
Low controls 1% DMSO/ringer solution + basal glutamate activation (defined as 100% CTL).
High controls 10 μM CDPPB+ basal glutamate activation (defined as 200% CTL).
Test compounds are dissolved and diluted in DMSO to 100-fold the desired concentrations. In a second step, the compounds are diluted in Ringer solution such that the compounds are 4-fold more concentrated than the desired final assay concentration. The final DMSO concentration was 1%.
20 μl of each compound solution are then transferred to the assay plate and the Ca2+ kinetic is measured to determine any intrinsic compound activity. After 5 mM incubation in the FLIPR device, the second stimulation with 20 μl of glutamate in Ringer solution (glutamate concentration adjusted to approximately 5% basal stimulation of the maximal possible glutamate effect) is added and the kinetic Ca2+ response of the wells was measured for the modulation effect.
The peak height of the Ca release related fluorescence signal (9-66) is used for the EC50. The EC50 of the modulation is calculated over a nonlinear regression with GraphPad Prism (Table 1).
For `COc1cccc(N2CCN(C(=O)Cc3nc(-c4ccc(F)c(C)c4)cn3-c3ccccc3)CC2=O)c1` [Example 7.02.27.], the EC50 was found to be 94 nM.

In the case of `Cc1nc2c(o1)CN(C(=O)Cc1nc(-c3ccc(F)c(C)c3)cn1-c1ccc(F)cc1)CC2` [Example 7.02.19.], the EC50 was determined as 67 nM.

As for `COc1ccc(-c2cn(-c3ccc(F)cc3)c(CC(=O)N3CCc4nc(N)sc4CC3)n2)cc1` [Example 7.02.11.], the EC50 came to 103 nM.

With `COc1ccc(-c2cn(-c3ccc(F)cc3)c(CC(=O)N3CCc4nc(C)sc4CC3)n2)cc1` [Example 7.02.12.], the concentration giving a half-maximal response (EC50) is 39 nM.

Take `Cc1nc2c(s1)CN(C(=O)Cc1nc(-c3ccc(F)cc3)cn1-c1ccc(F)cc1)C2` [Example 7.02.03.]: the concentration for a half-maximal effect (EC50) came to 210 nM.

On to `O=C(Cc1nc(-c2ccc(F)cc2)cn1-c1ccc(F)cc1)N1CCN(c2noc3ccccc23)CC1` [Example 7.02.02.], for which the concentration giving a half-maximal response (EC50) came out at 114 nM.

As for `Cc1nc2c(s1)CCN(C(=O)Cc1nc(-c3ccc(F)c(C)c3)cn1-c1ccc(F)cc1)CC2` [Example 7.02.18.], the EC50 is 67 nM.

Regarding `COc1ccc(-c2cn(-c3ccccc3)c(CC(=O)N3CCc4nc(N)sc4CC3)n2)cc1` [Example 7.02.23.], the half-maximal effective concentration (EC50) was 394 nM.

For `Cc1nc2c(o1)CN(C(=O)Cc1nc(-c3ccc(Cl)c(C)c3)cn1-c1ccc(F)cc1)CC2` [Example 7.02.17.], the concentration for a half-maximal effect (EC50) worked out at 80 nM.

For the molecule `Cc1nc2c(o1)CN(C(=O)Cc1nc(-c3ccc(F)cc3)cn1-c1ccc(F)cc1)CC2` [Example 7.01.01., 2-(1,4-Bis-(4-fluoro-phenyl)-1H-imidazol-2-yl)-1-(2-methyl-6,7-dihydro-4H-oxazolo[5,4-c]pyridin-5-yl)-ethanone], the EC50 was 784 nM.

Consider `Cc1nc2c(s1)CCN(C(=O)Cc1nc(-c3ccc(F)cc3)cn1-c1ccc(F)cc1)CC2` [Example 7.02.01., 2-[1,4-Bis-(4-fluoro-phenyl)-1H-imidazol-2-yl]-1-(2-methyl-4,5,7,8-tetrahydro-thiazolo[4,5-d]azepin-6-yl)-ethanone], for which the half-maximal effective concentration (EC50) is 94 nM.

In the case of `Cc1ccc(-c2cn(-c3ccc(F)cc3)c(CC(=O)N3CCN(c4cccc(C#N)c4)C(=O)C3)n2)cc1` [Example 7.02.08.], the concentration giving a half-maximal response (EC50) turned out to be 32 nM.

Consider `Cc1cc(-c2cn(-c3ccc(F)cc3)c(CC(=O)N3CCc4nc(N)sc4CC3)n2)ccc1F` [Example 7.02.20.], for which the half-maximal effective concentration (EC50) worked out at 70 nM.

For the molecule `Cc1ccc(-c2cn(-c3ccc(F)cc3)c(CC(=O)N3Cc4nc(C)sc4C3)n2)cc1` [Example 7.02.09.], the concentration for a half-maximal effect (EC50) turned out to be 90 nM.

On to `Cc1nc2c(s1)CN(C(=O)Cc1nc(-c3ccc(F)c(C)c3)cn1-c1ccccc1)C2` [Example 7.02.28.], for which the EC50 turned out to be 48 nM.

On to `COc1cccc(N2CCN(C(=O)Cc3nc(-c4ccc(C)cc4)cn3-c3ccc(F)cc3)CC2=O)c1` [Example 7.02.07.], for which the EC50 is 96 nM.

`Cc1ccc(-c2cn(-c3ccc(F)cc3)c(CC(=O)N3CCc4nc(C)oc4C3)n2)cc1` [Example 7.02.04.]: the EC50 came out at 375 nM.

For the molecule `Cc1cc(-c2cn(-c3ccccc3)c(CC(=O)N3CCc4nc(N)sc4CC3)n2)ccc1F` [Example 7.02.26.], the EC50 amounted to 71 nM.

Regarding `COc1ccc(-c2cn(-c3ccccc3)c(CC(=O)N3CCc4nc(C)oc4C3)n2)cc1` [Example 7.02.25.], the 50% effective concentration (EC50) was determined as 1440 nM.

For the molecule `COc1cccc(-c2cn(-c3ccc(F)cc3)c(CC(=O)N3CCc4nc(C)oc4C3)n2)c1` [Example 7.02.21.], the EC50 amounted to 1120 nM.

As to `Cc1nc2c(s1)CCN(C(=O)Cc1nc(-c3ccc(Cl)c(C)c3)cn1-c1ccc(F)cc1)CC2` [Example 7.02.15.], the concentration for a half-maximal effect (EC50) stood at 45 nM.

Regarding `Cc1ccc(-c2cn(-c3ccc(F)cc3)c(CC(=O)N3CCc4nc(C)sc4CC3)n2)cc1` [Example 7.02.06.], the 50% effective concentration (EC50) is 93 nM.

`Cc1nc2c(s1)CCN(C(=O)Cc1nc(-c3ccc(F)c(C)c3)cn1-c1ccccc1)CC2` [Example 7.02.29.]: the EC50 came to 33 nM.

Consider `COc1ccc(-c2cn(-c3ccc(F)cc3)c(CC(=O)N3Cc4nc(C)sc4C3)n2)cc1` [Example 7.02.14.], for which the concentration for a half-maximal effect (EC50) worked out at 87 nM.

With `COc1cccc(-c2cn(-c3ccc(F)cc3)c(CC(=O)N3CCc4nc(C)sc4CC3)n2)c1` [Example 7.02.22.], the concentration for a half-maximal effect (EC50) was 138 nM.

`Nc1nc2c(s1)CCN(C(=O)Cc1nc(-c3ccc(F)cc3)cn1-c1ccc(F)cc1)CC2` [Example 7.01.02.]: the 50% effective concentration (EC50) amounted to 109 nM.

For `COc1ccc(-c2cn(-c3ccccc3)c(CC(=O)N3CCc4nc(C)sc4CC3)n2)cc1` [Example 7.02.24.], the EC50 amounted to 125 nM.

For the molecule `COc1ccc(-c2cn(-c3ccc(F)cc3)c(CC(=O)N3CCN(c4cccc(OC)c4)C(=O)C3)n2)cc1` [Example 7.02.13.], the half-maximal effective concentration (EC50) was 74 nM.

As to `COc1ccc(-c2cn(-c3ccc(F)cc3)c(CC(=O)N3CCN(c4cccc(C#N)c4)C(=O)C3)n2)cc1` [Example 7.02.30.], the EC50 was 82 nM.

As for `Cc1cc(-c2cn(-c3ccc(F)cc3)c(CC(=O)N3CCc4nc(N)sc4CC3)n2)ccc1Cl` [Example 7.02.16.], the 50% effective concentration (EC50) was 70 nM.

Regarding `Cc1ccc(-c2cn(-c3ccc(F)cc3)c(CC(=O)N3CCc4nc(N)sc4CC3)n2)cc1` [Example 7.02.05.], the EC50 was determined as 52 nM.
